Data on 17 compounds can be found in patent US8022095B2, “Methods of treating headaches using 5-HT agonists in combination with long-acting NSAIDs” (Pozen, Inc., priority 1996, dated 2011).

Where two headings read alike, the source gives them in different places.

The conditions of data set [1]: cited from earlier work; for half-life: pharmacokinetic / plasma half-life; for lead time to peak plasma levels: list follows the words 'intramuscular routes will generally have shorter lead times to peak plasma levels'; for time of peak plasma concentration after oral administration: oral dosing.
A further data set has as its target T1, COX-2 (Homo sapiens, UniProt P35354).
T1 sequence (P35354 18-604): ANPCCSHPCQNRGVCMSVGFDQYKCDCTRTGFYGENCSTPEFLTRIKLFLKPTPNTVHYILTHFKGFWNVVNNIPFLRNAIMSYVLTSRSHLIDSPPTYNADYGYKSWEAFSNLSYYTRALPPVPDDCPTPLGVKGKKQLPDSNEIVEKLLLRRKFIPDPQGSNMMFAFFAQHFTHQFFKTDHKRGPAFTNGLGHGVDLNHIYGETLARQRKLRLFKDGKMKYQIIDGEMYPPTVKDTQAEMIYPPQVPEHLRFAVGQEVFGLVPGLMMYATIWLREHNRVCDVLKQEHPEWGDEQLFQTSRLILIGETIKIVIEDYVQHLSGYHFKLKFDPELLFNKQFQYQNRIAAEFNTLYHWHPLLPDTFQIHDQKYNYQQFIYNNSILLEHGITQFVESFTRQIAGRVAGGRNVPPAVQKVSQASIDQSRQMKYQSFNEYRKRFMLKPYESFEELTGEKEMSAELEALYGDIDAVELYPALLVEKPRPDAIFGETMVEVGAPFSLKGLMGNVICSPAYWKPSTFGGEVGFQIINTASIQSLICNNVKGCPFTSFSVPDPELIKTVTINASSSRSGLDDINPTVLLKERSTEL
As to conditions: reported (Feldman 2000; Sengupta 1999); cited from earlier work.

A further data set relates to migraine attack. Here is the method: Headache relief at two hours was determined in a manner identical to that described above, but the relapse and sustained response rates were calculated based solely on a return of moderate or severe headache pain (i.e., no “rescue medication” protocol was used as a separate indicator of relapse).
The subject of another data set is migraine attacks. The data set can be described thus: Open-label, randomized out-patient study, 16 migraine patients with high relapse rate, two successive migraine attacks. In kind it is in vivo, human. Here is the method:
Headache pain was assessed by the patients on a 4-point scale (no pain, mild pain, moderate pain, or severe pain). Each patient was treated for two migraine attacks of moderate or severe intensity at baseline and pain scores were recorded every 30 minutes for the first two hours following dosing and at 3, 4, 6, 12 and 24 hours post-dose. “Relapse” was defined to occur in those patients who responded with an adequate reduction in headache pain (moderate or severe at baseline, reduced to no pain or mild pain) at 2 hours after administration and, in whom, over the next 22 hours either: (a) headache pain returned to moderate or severe intensity; or (b) “rescue medication” was required to treat the recurrent headache pain.

For a further data set, the system named is migraine. The experiment in a line: Comparison of MT 400, triptan alone, NSAID alone and placebo in migraine patients. The class given is in vivo, human. As to conditions: for % with nausea / % with phonophobia / % with photophobia / Number with nausea / Number with phonophobia / Number with photophobia: at 2 hours; for Number with nausea / Number with phonophobia / Number with photophobia / Sustained Response (Sustained Pain Response), number of subjects / Sustained Pain Free responders, number of subjects: N = 250 / 229 / 247; for patients with improvement from moderate or severe pain at baseline to mild or no pain: at two hours; for Sustained Response (Sustained Pain Response), percentage of subjects: initial pain response without return of pain for 24 hours after dosing; for Sustained Response (Sustained Pain Response), number of subjects: initial pain response without return of pain for 24 hours; for Sustained Pain Free responders, number of subjects: pain score 0 at 2 hours and from 2 to 24 hours without rescue; for therapeutic gain, Sustained Pain Free / therapeutic gain over placebo, sustained response / therapeutic gain over placebo, pain response: response rate minus placebo response; for therapeutic gain over placebo, sustained response: 24 hours; for therapeutic gain over placebo, pain response: pain response at two hours. The procedure: In these experiments, a comparison was made between: patients administered triptan alone; patients administered NSAID alone; patients administered a combination of triptan and NSAID (“MT400”); and, in some cases, patients administered a placebo.
Sustained response was evaluated based upon the number of patients that experience an initial pain response without a return of pain for the 24 hours after dosing.
The most desirable outcome for the treatment of migraine is that the pain be eliminated quickly and not return. This outcome measure is termed Sustained Pain Free. Responders are defined as patients having a pain score of 0 at 2 hours and nothing more than 0 from 2 to 24 hours post dose without the need for rescue.
As migraine is a pathological complex characterized by unilateral headache, often accompanied by associated symptoms of nausea, photophobia and phonophobia, efficacy against these other parameters is important in evaluating the efficacy of a drug candidate.

One may read the half-life as the time in which the quantity being followed falls by half. As to `CCc1cccc2c3c([nH]c12)C(CC)(CC(=O)O)OCC3` (stereo not shown) [etodolac], the half-life entry in data set [1] is “about 7 hours”. The “specificity for COX-2” value at COX-2 was “highly specific for COX-2”.

With `CN1C(C(=O)Nc2ccccn2)=C(O)c2ccccc2S1(=O)=O` [piroxicam], the “time of dosing until steady state plasma concentrations are reached” value in data set [1] (in vivo) was 7 to 12 days.

On to `COc1ccc2cc(CCC(C)=O)ccc2c1` [nabumetone], for which, in data set [1], the “lead time to peak plasma levels” value was 2.5 to 4 h and the half-life is 22 to 30 h.

On to `COc1ccc2c(c1)c(CC(=O)O)c(C)n2C(=O)c1ccc(Cl)cc1` [indomethacin], for which the “lead time to peak plasma levels” value in data set [1] was 1 to 4 h.

Compound `COc1ccc2cc([C@H](C)C(=O)O)ccc2c1` [naproxen sodium] gave a relapse rate in the data set with migraine attack (500 mg naproxen sodium alone, based solely on return of moderate or severe headache pain) of 26%.

For the compound `CN1C(C(=O)Nc2ccccn2)=C(O)c2sc(Cl)cc2S1(=O)=O` [lornoxicam], in data set [1], the “time of peak plasma concentration after oral administration” value (from here on “time of peak plasma concentration”) is “approximately two” and the half-life result is listed as “about 4 hours”. Besides, the half-life result in data set [1] (listed as Lornoxicam) was “approximately 4 hours”.

Consider `CNS(=O)(=O)Cc1ccc2[nH]cc(CCN(C)C)c2c1` [sumatriptan], for which the “24 hour sustained response” value in the data set on migraine attacks (% of 16 patients, relapse criteria including rescue medication) is reported as 44%. Moreover, in the data set with migraine attacks (of 16 patients, relapse criteria including rescue medication), the “number of patients with 24 hour sustained response” value is “seven”. The same compound came in with a relapse rate with migraine attacks (re-analysed, based solely on return of moderate or severe headache pain) of 40%. Moreover, the “relapse rate of responding patients” value in the data set with migraine attacks (relapse = return of moderate or severe pain or rescue medication within 22 hours after the 2 hour response) is given as 46%. In the data set with migraine attacks (responds initially and no relapse in twenty-four hours, criteria of the second study), the sustained response rate was determined as 56%. The figures for the peak serum concentration in data set [1] (oral doses of about 1-300 mg) and in data set [1] (subcutaneous injections of about 1 to 8 mg) were 1 to 300 ng/mL and 1 to 150 ng/mL, respectively.

Consider `CS(=O)(=O)c1ccc(C2=C(c3ccccc3)C(=O)OC2)cc1` [rofecoxib], for which, in data set [1], the “time of peak plasma concentration” value is 2 to 3 h and the half-life result was “about 17 hours”.

For `Cc1cccc(Nc2ccccc2C(=O)O)c1C` [mefenamic acid], the half-life result in data set [1] is “up to 4 hours”. The “specificity for COX-2” value on COX-2 is “highly specific for COX-2”.

`CC(C(=O)O)c1ccc(-c2ccccc2)c(F)c1` (stereo not shown) [flurbiprofen]: the half-life result in data set [1] is given as “about 6 hours”.

The compound `COc1ccc2cc([C@H](C)C(=O)O)ccc2c1` [naproxen] displayed a sustained response rate with migraine attack (responds initially and no relapse in twenty-four hours) of 46%. Besides, in the data set on migraine, the “% with nausea” value was “(31.2%)”, the “% with phonophobia” value was “(47.8%)”, the “% with photophobia” value is listed as “(57.5%)” and the Number with nausea is reported as 77. Also, in the data set with migraine, the Number with phonophobia amounted to 118; the Number with photophobia is 142; the “patients with improvement from moderate or severe pain at baseline to mild or no pain” value worked out at 46%; the “Sustained Response (Sustained Pain Response), percentage of subjects” value is given as 24.7%. Further, in the data set on migraine, the “Sustained Response (Sustained Pain Response), number of subjects” value was determined as 61; the “Sustained Pain Free responders, number of subjects” value is on record as 29; the “therapeutic gain, Sustained Pain Free” value is recorded as 6.7%; the “therapeutic gain over placebo, sustained response” value is 8%. Besides, the “therapeutic gain over placebo, pain response” value with migraine came out at 19%. In addition, in the data set on migraine (listed as Naproxen), the “Sustained Response (Sustained Pain Response), percentage of subjects” value is “(24.7%)”. The “Sustained Pain Free responders, percentage of subjects” value in the data set with migraine (pain score 0 at 2 hours and nothing more than 0 from 2 to 24 hours post dose without rescue) was “(11.7%)”.

Regarding `O=C(c1ccccc1)c1ccc2n1CCC2C(=O)O` (stereo not shown) [ketorolac], the half-life in data set [1] is 8 to 9 h.

As to `Cc1ccc(Cl)c(Nc2ccccc2C(=O)O)c1Cl` [meclofenamate, Meclofenamate sodium], the “lead time to peak plasma levels” value in data set [1] is 0.5 to 1 h.

As to `O=C(O)CCc1nc(-c2ccccc2)c(-c2ccccc2)o1` [oxaprozin], the half-life in data set [1] and in data set [1] (listed as Oxaprozin) was 42 to 50 h throughout.

`Cc1ccc(-c2cc(C(F)(F)F)nn2-c2ccc(S(N)(=O)=O)cc2)cc1` [Celecoxib, celecoxib]: in data set [1], the “time of peak plasma concentration” value was “approximately 3 hours” and the half-life result is “approximately 11 hours”.

Regarding `CNS(=O)(=O)Cc1ccc2[nH]cc(CCN(C)C)c2c1` [Imitrex, sumatriptan succinate], in the data set on migraine, the “% with nausea” value is listed as “(31.9%)”, the “% with phonophobia” value is reported as “(44.5%)”, the “% with photophobia” value is recorded as “(50.2%)” and the Number with nausea was found to be 73. Further, in the data set with migraine, the Number with phonophobia amounted to 102; the Number with photophobia amounted to 115; the “patients with improvement from moderate or severe pain at baseline to mild or no pain” value is recorded as 49%; the “Sustained Response (Sustained Pain Response), number of subjects” value came to 66. Besides, in the data set with migraine, the “Sustained Pain Free responders, number of subjects” value was found to be 25; the “therapeutic gain, Sustained Pain Free” value is given as 5.9%; the “therapeutic gain over placebo, sustained response” value came out at 12%; the “therapeutic gain over placebo, pain response” value amounted to 22%.

With `Cc1onc(-c2ccccc2)c1-c1ccc(S(N)(=O)=O)cc1` [valdecoxib], in data set [1], the “time of peak plasma concentration” value was 2 to 3 h and the half-life was 8 to 11 h.
